In data set [1] the test system is synaptic ribbons in inner hair cells. In words: Ribbon synapse immunostaining and counting in cochlea (Example 8). The format is in vivo, male CBA/CaJ mice. As for the experimental part:
At T+35 days, after DPOAE/ABR measures, all cochlea (four (4) left cochleae and four (4) right cochleae) per group were rapidly sampled and immediately fixed by PFA perfusion (through the round and oval windows with PFA 4% after creating a small hole at the apex) in order to performed ribbon synapse immunostaining and analysis. Cochleae were fixed for 1 hour in a 4% PFA solution and decalcified in undiluted RDO (10 mL/cochlea for a minimum of 2 hours). The membranous and sensory spiral containing the organ of Corti are dissected out as a flat surface preparation under a dissecting microscope and immunolabelled with appropriate antibodies: • Vglut3 (Vglut3-Guinea Pig IgG; #135 204, Synaptic systems and Anti-Guinea Pig IgG (H+L), #A21450; Thermo Fisher Scientific 647 nm Far-Red) to stain inner hair cell bodies (vesicular glutamate transporter). • Homer (Homer-Rabbit IgG; #GTX103278; Genetex and Anti-Rabbit IgG (H+L) #A11008 Thermo Fisher Scientific 568 nm Red) to stain dendritic proteins of auditory nerve fibers connecting to IHC (post-synaptic). • CtBP2 (CtBP2-Mouse-IgG1; #612044; BD Transduction Laboratories and Anti-Mouse IgG1, #A21121, Thermo Fisher Scientific 488 Green) to stain the ribeye protein as pre-synaptic marker in IHC. • Phalloidin (Alexa Fluor™ Plus 405 Phalloidin; #A30104; Thermo Fisher Scientific 405 Blue).
Images were acquired on a confocal microscope and the slides were analyzed to i) evaluate by visual observation the presence of OHC and IHC (based on nuclei staining with CtBP2 and HC cell body staining with phalloidin) and ii) count the number of synaptic ribbons in selected inner hair cells in cochlea regions coding sound of selected frequency (25, 32 and 45 kHz).
The number of pre- (CtBP2) and post-synaptic (Homer) labeled spots was counted using Imaris software in 3 dimensions for each image. Co-localization of pre- and post-synaptic elements was defined as a distance of maximum […] between CtBP2- and Homer-labeled spots, using an in-house Matlab program to calculate the distances between CtBP2 and Homer labels from the x, y, and z coordinates.

Data set [2] is described as follows: Plasma and inner ear fluid exposure after single oral gavage (Example 1). In kind it is in vivo, male Wistar rats. The following applies: single oral 30 mg/kg; for concentration at 2 h: T0 + 2 hours; for concentration at 4 h: T0 + 4 hours. How it is done:
Two compositions were prepared: composition A and composition B.
Composition A is an aqueous solution comprising: • 6 mg/mL (free base equivalent) of fumarate salt of 1-[2-(4-biphenylyl)ethyl]-4-(3-trifluoromethylphenyl)-1,2,3,6-tetrahydropyridine (=paliroden fumarate), and • 0.6% w/v of methylcellulose with respect to the total volume of the aqueous solution.
Composition B is an aqueous solution comprising: • 4 mg/mL (free base equivalent) of hydrochloride salt of 1-[2-(2-naphthyl)ethyl]-4-(3-trifluoromethylphenyl)-1,2,3,6-tetrahydropyridine (=xaliproden hydrochloride), and • 10% w/v of arabic gum with respect to the total mass of the aqueous solution.
Composition A and composition B were administered to male Wistar rats (5 animals per active agent and timepoint), as described below.
Composition A was administered to 15 male Wistar rats, once, at time TO, via oral injection by gavage, at a dose of 5 mL of composition A per kilogram of the animal, i.e. a dose of 30 mg of paliroden fumarate per kilogram of the animal. The concentration of paliroden in rats plasma and in rats inner ear fluid (IEF) was measured at 6 timepoints, 5 rats being used at each timepoint for the concentration measurements (in the plasma and optionally in the IEF). The timepoints are T0+1 hour, T0+2 hours, T0+4 hours, T0+6 hours, T0+8 hours and T0+24 hours for the concentration measurement in the rats plasma. The timepoints are T0+2 hours, T0+4 hours and T0+24 hours for the concentration measurement in the rats inner ear fluid, as part of a terminal procedure including cochlea sampling and inner ear fluids collection from both ears of the rats. Bioanalytical methods were validated in both matrices (lithium heparin plasma and inner ear fluid) with a range of 0.25 to 500 ng/mL in plasma and 0.25 to 100 ng/mL in inner ear fluids.
Composition B was administered to 15 others male Wistar rats, once, at time T0, via oral injection by gavage, at a dose of 5 mL of composition B per kilogram of the animal, i.e. a dose of 20 mg of xaliproden hydrochloride per kilogram of the animal. The concentration of xaliproden in rats plasma and in rats inner ear fluid (IEF) was measured at 6 timepoints, 5 rats being used at each timepoint for the concentrations measurements (in the plasma and optionally in the IEF). The timepoints are T0+1 hour, T0+2 hours, T0+4 hours, T0+6 hours, T0+8 hours and T0+24 hours for the concentration measurement in the rats plasma. The timepoints are T0+2 hours, T0+4 hours and T0+24 hours for the concentration measurement in the rats inner ear fluid, as part of a terminal procedure including cochlea sampling and inner ear fluids collection from both ears of the rats. Bioanalytical methods were validated in both matrices (lithium heparin plasma and inner ear fluid) with a range of 0.25 to 500 ng/mL in plasma and 0.25 to 500 ng/mL in inner ear fluids.

The nature of data set [3]: Plasma and inner ear fluid exposure after single trans-tympanic injection in thermoreversible hydrogel composition (Example 4). In kind it is in vivo, male Wistar rats. The following applies: for concentration at 7 days / concentration at 168 h / concentration at 1 h / concentration at 24 h: male, Wistar, other: trans-tympanic injection; for concentration at 7 days: inner ear fluid, read-out: Concentrations in the inner ear fluid at 7 days post injection; for concentration at 168 h: 300 μg in one ear, T0 + 168 hours; for concentration at 1 h: T0 + 1 hour; for concentration at 24 h: T0 + 24 hours. How it is done:
Composition 4P and composition 4X as described in example 2 were administered to male Wistar rats (5 animals per active agent and timepoint), as described below.
At time T0, 30 μL of composition 4P were administered to 15 rats, in a single ear via trans-tympanic injection. The dose of paliroden fumarate that has been administered is thus of 300 μg in one ear of each rat.
At time T0, 30 μL of composition 4X were administered to 15 other rats, in a single ear via trans-tympanic injection. The dose of xaliproden hydrochloride that has been administered is thus of 150 μg in one ear of each rat.
For the 15 rats that have received composition 4P and for the 15 rats that have received composition 4X, plasmatic and inner ear expositions were determined via blood and cochlea terminal sampling in order to achieve lithium-heparin plasma and inner ear fluid preparation, at T+1 hour, T+24 hours and T+168 hours. Bioanalytical methods were validated in both matrices (lithium heparin plasma and inner ear fluid) with a range of 0.2 to 815 ng/mL for paliroden (fumarate salt) and 0.38 to 763 ng/mL for xaliproden (hydrochloride salt).

[4] abbreviates: male, Wistar, plasma, rat, read-out: Concentration of paliroden (fumarate salt), Plasma, Mean.
The mark [5] stands for this setting: male, Wistar, rat inner ear fluid, read-out: Concentration of paliroden (fumarate salt), IEF, Mean.
Where [6] appears, read: rat inner ear fluid, trans-tympanic 300 μg, thermoreversible hydrogel, read-out: Concentration of paliroden (fumarate salt), IEF, Mean.
The mark [7] stands for this setting: plasma, rat, trans-tympanic 300 μg one ear, suspension in thermoreversible hydrogel, read-out: Concentration of paliroden (fumarate salt), Plasma, Mean.

Where a name gives a salt, the structure may show the parent alone. Read-outs that look alike come from different tables or passages of the source.

Take `FC(F)(F)c1cccc(C2=CCN(CCc3ccc(-c4ccccc4)cc3)CC2)c1` [paliroden (fumarate salt), 1-[2-(4-biphenylyl)ethyl]-4-(3-trifluoromethylphenyl)-1,2,3,6-tetrahydropyridine]: the “Number of colocalized ribbons per IHC” value in data set [1] (25 kHz to 40 kHz, not statistically different to sham) was “intermediate between traumatized and control mice”. The “Number of pre-synaptic and post-synaptic elements (CtBP2 and Homer) per IHC” value in data set [1] (32 kHz, vs traumatized untreated, paliroden 50 μg/ear one day post-noise, subset) is given as “tended to increase”. The “Colocalized ribbons per IHC” value in data set [1] (32 kHz, vs traumatized untreated, paliroden 50 μg/ear, subset) was “increase”. Moreover, the concentration at 1 h was 35 ng/mL in data set [2] (male, Wistar, plasma, rat, T0 + 1 hour, read-out: Concentration of paliroden (fumarate salt), Plasma, Mean); 5490 ng/mL in data set [3] (setting [6]); 1 ng/mL in data set [3] (setting [7]). The results for the concentration at 2 h in data set [2] (setting [4]) and in data set [2] (setting [5]) were 106 ng/mL and 10.9 ng/mL, respectively. Further, the concentration at 4 h was 3.1 ng/mL in data set [2] (setting [4]) and 2.6 ng/mL in data set [2] (setting [5]). Moreover, the concentration at 6 h in data set [2] (male, Wistar, plasma, rat, T0 + 6 hours, read-out: Concentration of paliroden (fumarate salt), Plasma, Mean) was determined as 4.4 ng/mL. In addition, in data set [2] (male, Wistar, plasma, rat, T0 + 8 hours, read-out: Concentration of paliroden (fumarate salt), Plasma, Mean), the concentration at 8 h turned out to be 1.6 ng/mL. Further, the concentration at 24 h in data set [2] (male, Wistar, plasma, rat, T0 + 24 hours, read-out: Concentration of paliroden (fumarate salt), Plasma, Mean) is 1.7 ng/mL; in data set [3] (setting [6]), 1370 ng/mL; in data set [3] (setting [7]), 0.4 ng/mL. In addition, the “Concentration of paliroden (fumarate salt), IEF, Mean” value in data set [2] (rat inner ear fluid, T0 + 24 hours) was “BLQ”. Also, the concentration at 7 days in data set [3] (300 μg, rat, trans-tympanic injection, thermoreversible hydrogel, approximate conversion) is ~1200 nM; in data set [3] (rat, trans-tympanic injection, thermoreversible hydrogel), ~600 ng/mL. For the same compound, the concentration at 168 h in data set [3] (rat inner ear fluid, trans-tympanic 300 μg, thermoreversible hydrogel, n = 4, read-out: Concentration of paliroden (fumarate salt), IEF, Mean) was 687 ng/mL; in data set [3] (setting [7]), 0.2 ng/mL. In data set [3] (rat, trans-tympanic injection, suspension in thermoreversible hydrogel, summary), the “High concentrations rapidly reached in the inner ear fluid” value was “approximately 5000 ng/mL”. Moreover, the “High concentrations rapidly reached in the IEF (molar)” value in data set [3] (rat, trans-tympanic injection, thermoreversible hydrogel, approximate conversion) is “approximately 10 μM”.
